According to ChEMBL document CHEMBL4879554, “Data for DCP probe GNE-2256” (2021):
Active and inactive are the calls of the source.

Legend:
[1] = target: Non-receptor tyrosine-protein kinase TYK2 (Homo sapiens) (UniProt P29597); test: TYK2 Kinase panel; conditions: Compound concentration 1.0 uM
[2] = target: Ephrin type-A receptor 1 (Homo sapiens) (UniProt P21709); test: EphA1 Kinase panel; conditions: Compound concentration 1.0 uM
[3] = target: MAP kinase-interacting serine/threonine-protein kinase 2 (Homo sapiens) (UniProt Q9HBH9); test: MKNK2 Kinase panel; conditions: Compound concentration 1.0 uM
[4] = target: MAP kinase-activated protein kinase 3 (Homo sapiens) (UniProt Q16644); test: MAPKAPK3 Kinase panel; conditions: Compound concentration 1.0 uM
[5] = target: Rho-associated protein kinase 1 (Homo sapiens) (UniProt Q13464); test: ROCK1 Kinase panel; conditions: Compound concentration 1.0 uM
[6] = target: Insulin receptor (Homo sapiens) (UniProt P06213); test: InsR Kinase panel; conditions: Compound concentration 1.0 uM
[7] = target: Platelet-derived growth factor receptor alpha (Homo sapiens) (UniProt P16234); test: PDGFR_alpha Kinase panel; conditions: Compound concentration 1.0 uM
[8] = target: cGMP-dependent protein kinase 1 (Homo sapiens) (UniProt Q13976); test: PKG1_alpha Kinase panel; conditions: Compound concentration 1.0 uM
cGMP-dependent protein kinase 1 (Homo sapiens), sequence (Q13976 whole entry): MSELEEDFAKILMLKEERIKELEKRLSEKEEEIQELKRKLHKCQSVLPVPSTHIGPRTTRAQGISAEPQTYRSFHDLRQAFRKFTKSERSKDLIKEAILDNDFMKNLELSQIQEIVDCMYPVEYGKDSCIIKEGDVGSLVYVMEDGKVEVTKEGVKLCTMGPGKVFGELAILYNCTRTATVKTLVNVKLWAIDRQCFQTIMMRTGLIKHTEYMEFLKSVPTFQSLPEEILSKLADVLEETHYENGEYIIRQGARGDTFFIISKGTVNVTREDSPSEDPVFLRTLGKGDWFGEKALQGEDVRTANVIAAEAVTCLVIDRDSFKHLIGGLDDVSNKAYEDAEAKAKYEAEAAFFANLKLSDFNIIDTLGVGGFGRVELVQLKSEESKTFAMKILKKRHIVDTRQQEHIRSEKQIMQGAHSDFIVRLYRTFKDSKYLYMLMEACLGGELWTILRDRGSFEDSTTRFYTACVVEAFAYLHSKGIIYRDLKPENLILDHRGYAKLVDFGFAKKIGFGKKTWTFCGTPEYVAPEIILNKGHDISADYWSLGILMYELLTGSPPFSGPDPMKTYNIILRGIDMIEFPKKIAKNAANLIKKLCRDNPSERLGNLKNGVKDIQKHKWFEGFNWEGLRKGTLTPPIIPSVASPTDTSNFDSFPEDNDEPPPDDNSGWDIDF

[9] = target: Interleukin-1 receptor-associated kinase 4 (Homo sapiens) (UniProt Q9NWZ3); test: IRAK4 Kinase panel; conditions: Compound concentration 1.0 uM
Interleukin-1 receptor-associated kinase 4 (Homo sapiens), sequence (Q9NWZ3 whole entry): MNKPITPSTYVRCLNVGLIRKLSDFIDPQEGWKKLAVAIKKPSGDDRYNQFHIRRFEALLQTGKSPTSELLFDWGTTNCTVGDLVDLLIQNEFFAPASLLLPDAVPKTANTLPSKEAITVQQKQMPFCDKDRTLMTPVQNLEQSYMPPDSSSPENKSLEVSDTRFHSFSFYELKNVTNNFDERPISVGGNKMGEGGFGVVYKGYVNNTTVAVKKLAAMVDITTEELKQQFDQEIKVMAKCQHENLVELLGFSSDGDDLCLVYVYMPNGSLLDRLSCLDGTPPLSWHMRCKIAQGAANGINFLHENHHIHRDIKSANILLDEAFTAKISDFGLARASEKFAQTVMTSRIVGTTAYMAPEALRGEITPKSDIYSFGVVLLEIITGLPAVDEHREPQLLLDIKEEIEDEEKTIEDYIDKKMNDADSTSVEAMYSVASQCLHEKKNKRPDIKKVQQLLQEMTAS

[10] = (§1) TAK1-TAB1 Kinase panel; set-up: species or system Homo sapiens
Homo sapiens = species on record: Homo sapiens; test: as §1; conditions: Compound concentration 1.0 uM
[11] = target: Mitogen-activated protein kinase kinase kinase 8 (Homo sapiens) (UniProt P41279); test: Cot Kinase panel; conditions: Compound concentration 1.0 uM
[12] = target: Ephrin type-A receptor 7 (Homo sapiens) (UniProt Q15375); test: EphA7 Kinase panel; conditions: Compound concentration 1.0 uM
[13] = target: Proto-oncogene tyrosine-protein kinase ROS (Homo sapiens) (UniProt P08922); test: Ros Kinase panel; conditions: Compound concentration 1.0 uM
[14] = target: Serine/threonine-protein kinase Nek1 (Homo sapiens) (UniProt Q96PY6); test: NEK1 Kinase panel; conditions: Compound concentration 1.0 uM
[15] = target: Mitogen-activated protein kinase 11 (Homo sapiens) (UniProt Q15759); test: p38_beta Kinase panel; conditions: Compound concentration 1.0 uM
Mitogen-activated protein kinase 11 (Homo sapiens), sequence (Q15759 whole entry): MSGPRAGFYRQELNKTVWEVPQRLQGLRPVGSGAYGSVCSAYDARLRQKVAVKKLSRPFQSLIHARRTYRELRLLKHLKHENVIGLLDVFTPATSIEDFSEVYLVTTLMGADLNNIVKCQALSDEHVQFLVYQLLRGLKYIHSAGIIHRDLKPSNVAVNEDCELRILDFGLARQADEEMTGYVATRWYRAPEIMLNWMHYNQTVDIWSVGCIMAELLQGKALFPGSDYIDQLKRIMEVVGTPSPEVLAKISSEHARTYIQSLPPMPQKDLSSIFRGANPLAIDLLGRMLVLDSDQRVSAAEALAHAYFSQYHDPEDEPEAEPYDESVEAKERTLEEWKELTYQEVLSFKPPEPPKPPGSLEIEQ

[16] = target: Muscle, skeletal receptor tyrosine-protein kinase (Homo sapiens) (UniProt O15146); test: MuSK Kinase panel; conditions: Compound concentration 1.0 uM
[17] = target: 5-hydroxytryptamine receptor 2C (Homo sapiens) (UniProt P28335); conditions: Compound concentration 10.0 uM
5-hydroxytryptamine receptor 2C (Homo sapiens), sequence (P28335 whole entry): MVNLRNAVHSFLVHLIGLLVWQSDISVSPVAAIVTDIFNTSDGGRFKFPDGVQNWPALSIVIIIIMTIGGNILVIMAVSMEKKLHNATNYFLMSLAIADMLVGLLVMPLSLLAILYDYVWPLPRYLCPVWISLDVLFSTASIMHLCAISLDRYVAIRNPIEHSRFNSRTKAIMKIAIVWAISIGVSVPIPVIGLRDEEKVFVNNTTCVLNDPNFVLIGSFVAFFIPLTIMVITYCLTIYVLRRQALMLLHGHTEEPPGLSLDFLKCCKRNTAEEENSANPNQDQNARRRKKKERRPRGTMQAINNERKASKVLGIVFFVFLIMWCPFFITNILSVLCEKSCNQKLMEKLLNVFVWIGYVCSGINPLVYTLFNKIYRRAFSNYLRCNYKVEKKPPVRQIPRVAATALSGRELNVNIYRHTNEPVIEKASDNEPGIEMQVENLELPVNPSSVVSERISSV

[18] = target: Cyclin-dependent kinase 5/CDK5 activator 1 (Homo sapiens) (UniProt Q00535+Q15078); test: CDK5/p25 Kinase panel; assay type: protein-complex assay; conditions: Compound concentration 1.0 uM
[19] = target: T1, 5-hydroxytryptamine receptor 2B (Homo sapiens, UniProt P41595); test: GPCRScan assay: inhibition of 5-HT2B; set-up: radioligand conc. used [nm] 1.0 – 2.0, parental cells stable HEK
T1 sequence (P41595 whole entry): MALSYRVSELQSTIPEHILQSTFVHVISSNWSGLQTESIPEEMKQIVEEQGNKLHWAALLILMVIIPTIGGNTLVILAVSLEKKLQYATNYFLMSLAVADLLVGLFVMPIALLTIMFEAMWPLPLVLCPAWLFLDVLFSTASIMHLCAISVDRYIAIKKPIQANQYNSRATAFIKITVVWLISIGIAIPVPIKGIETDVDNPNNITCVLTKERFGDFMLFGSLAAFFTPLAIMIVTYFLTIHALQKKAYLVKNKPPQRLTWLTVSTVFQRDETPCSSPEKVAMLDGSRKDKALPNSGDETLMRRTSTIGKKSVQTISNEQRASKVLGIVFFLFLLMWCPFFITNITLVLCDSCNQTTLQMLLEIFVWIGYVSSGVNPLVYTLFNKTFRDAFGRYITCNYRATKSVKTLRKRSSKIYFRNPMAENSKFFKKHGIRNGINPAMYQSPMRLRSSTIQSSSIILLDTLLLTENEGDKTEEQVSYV

[20] = target: Leucine-rich repeat serine/threonine-protein kinase 2 (Homo sapiens) (UniProt Q5S007); test: LRRK2 Kinase panel; conditions: Compound concentration 1.0 uM
[21] = target: T1, 5-hydroxytryptamine receptor 2B; conditions: Compound concentration 10.0 uM
[22] = target: Serine/threonine-protein kinase PLK3 (Homo sapiens) (UniProt Q9H4B4); test: PLK3 Kinase panel; conditions: Compound concentration 1.0 uM
Serine/threonine-protein kinase PLK3 (Homo sapiens), sequence (Q9H4B4 whole entry, looked up): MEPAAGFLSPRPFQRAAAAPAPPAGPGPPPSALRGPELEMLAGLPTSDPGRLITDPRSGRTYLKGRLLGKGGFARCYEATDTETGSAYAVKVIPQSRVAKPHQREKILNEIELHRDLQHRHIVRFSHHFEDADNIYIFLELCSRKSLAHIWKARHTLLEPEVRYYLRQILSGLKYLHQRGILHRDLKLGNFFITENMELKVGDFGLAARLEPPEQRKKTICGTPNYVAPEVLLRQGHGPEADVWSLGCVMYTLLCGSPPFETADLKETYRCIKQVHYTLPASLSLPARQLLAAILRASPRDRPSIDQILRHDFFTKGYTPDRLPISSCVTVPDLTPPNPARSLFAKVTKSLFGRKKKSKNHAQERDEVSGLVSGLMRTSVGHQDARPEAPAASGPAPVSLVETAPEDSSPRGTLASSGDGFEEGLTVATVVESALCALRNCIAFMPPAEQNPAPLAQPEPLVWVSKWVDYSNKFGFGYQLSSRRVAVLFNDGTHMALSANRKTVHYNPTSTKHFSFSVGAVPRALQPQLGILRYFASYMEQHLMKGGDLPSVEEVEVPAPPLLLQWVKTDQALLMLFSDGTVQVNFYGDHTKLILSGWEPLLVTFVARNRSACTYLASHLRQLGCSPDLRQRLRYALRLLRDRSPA

[23] = target: Tyrosine-protein kinase TXK (Homo sapiens) (UniProt P42681); test: TXK Kinase panel; conditions: Compound concentration 1.0 uM
[24] = target: Protein kinase C beta type (Homo sapiens) (UniProt P05771); test: PKC_beta1 Kinase panel; conditions: Compound concentration 1.0 uM
[25] = target: Serine/threonine-protein kinase B-raf (Homo sapiens) (UniProt P15056); test: B-Raf Kinase panel; conditions: Compound concentration 1.0 uM
[26] = target: Macrophage-stimulating protein receptor (Homo sapiens) (UniProt Q04912); test: Ron Kinase panel; conditions: Compound concentration 1.0 uM
[27] = target: Tyrosine-protein kinase Mer (Homo sapiens) (UniProt Q12866); test: Mer Kinase panel; conditions: Compound concentration 1.0 uM
[28] = target: RAC-beta serine/threonine-protein kinase (Homo sapiens) (UniProt P31751); test: AKT2 Kinase panel; conditions: Compound concentration 1.0 uM
[29] = target: Hepatocyte growth factor receptor (Homo sapiens) (UniProt P08581); test: Met Kinase panel; conditions: Compound concentration 1.0 uM
Hepatocyte growth factor receptor (Homo sapiens), sequence (P08581 whole entry): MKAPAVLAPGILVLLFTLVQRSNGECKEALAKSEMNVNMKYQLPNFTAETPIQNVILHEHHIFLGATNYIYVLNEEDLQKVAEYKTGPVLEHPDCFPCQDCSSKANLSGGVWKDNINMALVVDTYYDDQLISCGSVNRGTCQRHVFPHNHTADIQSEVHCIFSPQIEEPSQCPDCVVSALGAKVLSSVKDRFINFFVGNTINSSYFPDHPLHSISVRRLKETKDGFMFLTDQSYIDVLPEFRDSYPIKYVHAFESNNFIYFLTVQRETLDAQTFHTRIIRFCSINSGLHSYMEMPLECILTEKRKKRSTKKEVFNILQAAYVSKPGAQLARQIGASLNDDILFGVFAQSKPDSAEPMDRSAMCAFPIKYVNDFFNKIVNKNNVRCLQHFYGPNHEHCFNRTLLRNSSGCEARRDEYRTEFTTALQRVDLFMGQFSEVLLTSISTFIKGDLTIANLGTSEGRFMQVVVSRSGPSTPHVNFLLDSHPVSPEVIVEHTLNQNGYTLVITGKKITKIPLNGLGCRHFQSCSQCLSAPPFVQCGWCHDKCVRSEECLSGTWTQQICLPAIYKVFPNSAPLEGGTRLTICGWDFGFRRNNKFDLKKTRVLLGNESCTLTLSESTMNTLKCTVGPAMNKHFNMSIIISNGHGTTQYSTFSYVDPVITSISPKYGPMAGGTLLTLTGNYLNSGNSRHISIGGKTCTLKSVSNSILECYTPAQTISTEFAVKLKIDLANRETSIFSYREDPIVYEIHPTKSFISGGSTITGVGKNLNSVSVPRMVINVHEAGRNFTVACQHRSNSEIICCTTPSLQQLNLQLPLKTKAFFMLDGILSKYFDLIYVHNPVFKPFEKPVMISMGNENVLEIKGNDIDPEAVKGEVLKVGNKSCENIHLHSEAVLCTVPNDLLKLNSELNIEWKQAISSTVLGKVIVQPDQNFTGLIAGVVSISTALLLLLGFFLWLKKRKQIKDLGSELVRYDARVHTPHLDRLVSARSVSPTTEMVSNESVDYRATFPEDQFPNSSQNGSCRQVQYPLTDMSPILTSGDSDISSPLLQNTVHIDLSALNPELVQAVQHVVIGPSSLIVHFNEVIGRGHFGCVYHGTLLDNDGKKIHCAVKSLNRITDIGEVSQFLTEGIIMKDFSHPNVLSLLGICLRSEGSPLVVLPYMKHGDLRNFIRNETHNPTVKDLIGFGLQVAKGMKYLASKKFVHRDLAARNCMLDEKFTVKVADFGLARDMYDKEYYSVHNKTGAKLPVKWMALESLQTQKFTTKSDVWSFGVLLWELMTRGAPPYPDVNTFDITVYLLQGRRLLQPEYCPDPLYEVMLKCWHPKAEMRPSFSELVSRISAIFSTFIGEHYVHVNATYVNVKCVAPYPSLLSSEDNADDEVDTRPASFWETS

[30] = target: Protein kinase C eta type (Homo sapiens) (UniProt P24723); test: PKC_eta Kinase panel; conditions: Compound concentration 1.0 uM
[31] = target: D(2) dopamine receptor (Homo sapiens) (UniProt P14416); conditions: Compound concentration 10.0 uM
[32] = target: Dual specificity protein kinase CLK1 (Homo sapiens) (UniProt P49759); test: CLK1 Kinase panel; conditions: Compound concentration 1.0 uM
[33] = target: 5'-AMP-activated protein kinase catalytic subunit alpha-1 (Homo sapiens) (UniProt Q13131); test: PRKAA1 Kinase panel; conditions: Compound concentration 1.0 uM
[34] = target: Inhibitor of nuclear factor kappa-B kinase subunit beta (Homo sapiens) (UniProt O14920); test: IKK_beta Kinase panel; conditions: Compound concentration 1.0 uM
[35] = target: Ephrin type-B receptor 1 (Homo sapiens) (UniProt P54762); test: EphB1 Kinase panel; conditions: Compound concentration 1.0 uM
[36] = target: Tyrosine-protein kinase Blk (Homo sapiens) (UniProt P51451); test: Blk Kinase panel; conditions: Compound concentration 1.0 uM
[37] = target: Mitogen-activated protein kinase 12 (Homo sapiens) (UniProt P53778); test: p38_gamma Kinase panel; conditions: Compound concentration 1.0 uM
[38] = target: Interleukin-1 receptor-associated kinase 4 (Homo sapiens, UniProt Q9NWZ3); test: NanoBRET assay (IRAK4, SGC Frankfurt)
Interleukin-1 receptor-associated kinase 4, sequence (Q9NWZ3 whole entry): as the sequence (Q9NWZ3 whole entry) above

[39] = target: Calcium/calmodulin-dependent protein kinase type 1 (Homo sapiens) (UniProt Q14012); test: CaMKI Kinase panel; conditions: Compound concentration 1.0 uM
[40] = target: Histamine H2 receptor (Homo sapiens) (UniProt P25021); conditions: Compound concentration 10.0 uM
[41] = target: Mitogen-activated protein kinase 14 (Homo sapiens) (UniProt Q16539); test: p38_alpha(direct) Kinase panel; conditions: Compound concentration 1.0 uM
[42] = target: Calcium/calmodulin-dependent protein kinase type II subunit alpha (Homo sapiens) (UniProt Q9UQM7); test: CamKII_alpha Kinase panel; conditions: Compound concentration 1.0 uM
[43] = target: 5-hydroxytryptamine receptor 1E (Homo sapiens) (UniProt P28566); conditions: Compound concentration 10.0 uM
[44] = target: Serine/threonine-protein kinase Sgk2 (Homo sapiens) (UniProt Q9HBY8); test: SGK2 Kinase panel; conditions: Compound concentration 1.0 uM
[45] = target: Kappa-type opioid receptor (Homo sapiens) (UniProt P41145); conditions: Compound concentration 10.0 uM
Kappa-type opioid receptor (Homo sapiens), sequence (P41145 whole entry): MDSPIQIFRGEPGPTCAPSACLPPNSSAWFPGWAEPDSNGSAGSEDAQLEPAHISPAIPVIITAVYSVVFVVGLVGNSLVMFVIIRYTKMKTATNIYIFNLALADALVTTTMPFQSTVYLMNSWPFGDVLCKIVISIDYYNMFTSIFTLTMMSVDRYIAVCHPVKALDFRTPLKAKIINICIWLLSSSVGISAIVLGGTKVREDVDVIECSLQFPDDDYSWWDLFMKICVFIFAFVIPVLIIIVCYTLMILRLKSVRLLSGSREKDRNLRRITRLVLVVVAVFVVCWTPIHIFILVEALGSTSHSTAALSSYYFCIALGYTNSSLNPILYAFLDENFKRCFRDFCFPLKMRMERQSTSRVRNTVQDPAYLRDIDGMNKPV

[46] = target: Alpha-2A adrenergic receptor (Homo sapiens) (UniProt P08913); conditions: Compound concentration 10.0 uM
[47] = target: Serine/threonine-protein kinase DCLK2 (Homo sapiens) (UniProt Q8N568); test: DCAMKL2 Kinase panel; conditions: Compound concentration 1.0 uM
[48] = target: Serine/threonine-protein kinase 17A (Homo sapiens) (UniProt Q9UEE5); test: DRAK1 Kinase panel; conditions: Compound concentration 1.0 uM
[49] = target: Histamine H4 receptor (Homo sapiens) (UniProt Q9H3N8); conditions: Compound concentration 10.0 uM
[50] = target: Serine/threonine-protein kinase PAK 4 (Homo sapiens) (UniProt O96013); test: PAK4 Kinase panel; conditions: Compound concentration 1.0 uM
[51] = target: PAS domain-containing serine/threonine-protein kinase (Homo sapiens) (UniProt Q96RG2); test: PASK Kinase panel; conditions: Compound concentration 1.0 uM
[52] = target: Mitogen-activated protein kinase kinase kinase 2 (Homo sapiens) (UniProt Q9Y2U5); test: MEKK2 Kinase panel; conditions: Compound concentration 1.0 uM
[53] = target: Sigma non-opioid intracellular receptor 1 (Homo sapiens) (UniProt Q99720); conditions: Compound concentration 10.0 uM

CC(C)(O)[C@H](F)CN1Cc2cc(NC(=O)c3cnn4cccnc34)c(N3CCOCC3)cc2C1=O
509 nM: Ki [19]
966 nM: IC50 [10]
inactive: inhibition [1] 53.5% | inhibition [2] 20.8% | inhibition [3] 6.5% | inhibition [4] 6% | inhibition [5] 5% | inhibition [6] 34.5% | inhibition [7] 40.5% | inhibition [8] 1% | inhibition [9] 101% | inhibition (Homo sapiens) 74.5% | inhibition [11] 3% | inhibition [12] 20% | inhibition [13] 38.5% | inhibition [14] 11% | inhibition [15] 4% | inhibition [16] 13% | inhibition [17] 1.26% | inhibition [18] 9% | inhibition [20] 91.4% | inhibition [22] -3% | inhibition [23] 34% | inhibition [24] 4% | inhibition [25] -0.5% | inhibition [26] 2.5% | inhibition [27] 28% | inhibition [28] 7.5% | inhibition [29] -2% | inhibition [30] 8% | inhibition [31] 3.24% | inhibition [32] 7.5% | inhibition [33] 5.5% | inhibition [34] 1.5% | inhibition [35] 23% | inhibition [36] 37.5% | inhibition [37] 0.5% | inhibition [39] -5.5% | inhibition [40] -2.71% | inhibition [41] 4% | inhibition [42] 2.5% | inhibition [43] 1.48% | inhibition [44] 5.5% | inhibition [45] -0.13% | inhibition [46] 9.09% | inhibition [47] 0.5% | inhibition [48] 11.5% | inhibition [49] 19.5% | inhibition [50] 5% | inhibition [51] -6.5% | inhibition [52] 3.5% | inhibition [53] 9.11%
active: inhibition [21] 84.1% | EC50 [38] 3 nM | IC50 [38] 3.3 nM
